Reference: publication PMC2956480, “A bivalent glycopeptide to target two putative carbohydrate binding sites on FimH” (Beilstein Journal of Organic Chemistry, 2010)
Read-outs that look alike come from different tables or passages of the source. Marks after values point to notes of the source that are not given here.

Key:
[1] = test system: type 1 fimbriated E. coli (HB101pPKL4); FimH-mediated binding to mannan; experiment: ELISA, inhibition of mannose-specific type 1 fimbriated E. coli adhesion to mannan-coated microtiter plates; format: cell-based
Protocol: The synthesis of the bivalent glycopeptide 1 was not optimized in order to improve all the individual yields, because it has been the primary goal of this study to test the anti-adhesive properties of this type of ligand. An ELISA was performed as reported earlier, employing type 1 fimbriated E. coli bacteria and mannan-coated microtiter plates. In this assay a mannosidic ligand competes with the polysaccharide mannan adsorbed on a polystyrene microtiter plate for FimH-mediated binding to the type 1 fimbriated bacteria. The inhibitory ligand is employed in serial dilutions. This leads to inhibition curves, from which IC50-values can be deduced. The IC50-values reﬂect the inhibitor concentration that causes 50% inhibition of bacterial binding to mannan. […] Here, RIPs were based on the IC50-value determined for MeMan on the same plate, which was defined as IP ≡ 1. […]
An ELISA protocol was used to determine the IC50-value of the bivalent target glycopeptide 1 in comparison with monovalent reference ligands, employing mannan-coated microtiter plates and type 1 fimbriated E. coli (HB101pPKL4) as described earlier Optical densities (ODs) were measured on an AMP 400 COM ELISA reader at 405 nm (reference wavelength 492 nm). The percentage inhibition was calculated as {[OD(nI)-OD(I)] × 100 × [OD(nI)]^−1} (nI: no inhibitor, I: with inhibitor). […]

[2] = test system: type 1 fimbriated E. coli (HB101pPKL4); FimH-mediated binding to mannan; details: relative to MeMan, IP(MeMan) ≡ 1; ELISA, as reported earlier; ref 34 (DubberMSperlingOLindhorstT KOrg Biomol Chem2006439013912); cited from earlier work
From the text: Table 1 Inhibitory potencies in mannose-specific E. coli adhesion of the bivalent glycopeptide 1 in comparison with reference ligands, as determined by ELISA. IC50-values are average values from three independent assays. S: standard deviation; RIP: relative inhibitory potency based on methyl α-D-mannopyranoside (MeMan) with IP(MeMan) ≡ 1.

| SMILES | IC50 ([1]; mannan from Saccharomyces cerversiae coated (1 mg × ml^−1, 50 mM aq Na2CO3, pH 9.6), type 1 fimbriated E. coli (HB101pPKL4), OD at 405 nm (reference 492 nm), inhibitor in serial dilutions, sigmoidal fit, average values from three independent assays, S (in parentheses): standard deviation, read-out: IC50 (inhibitor concentration that causes 50% inhibition of bacterial binding to mannan)) [µM] | RIP (relative inhibitory potency) ([1]; relative to IC50 of MeMan on the same plate, IP(MeMan) ≡ 1, type 1 fimbriated E. coli on mannan) | RIP (relative inhibitory potency) [2] |
| --- | --- | --- | --- |
| CO[C@H]1O[C@H](CO)[C@@H](O)[C@H](O)[C@@H]1O [MeMan, methyl α-D-mannopyranoside] | 2900 | 1 |  |
| C=CCO[C@H]1O[C@H](CO)[C@@H](O)[C@H](O[C@H]2O[C@H](CO)[C@@H](O)[C@H](O)[C@@H]2O)[C@@H]1O [allyl Man(1,3)Man, allyl 3-O-α-D-mannosyl-α-D-mannoside] |  |  | 7^a |
| C=CCO[C@H]1O[C@H](CO[C@H]2O[C@H](CO)[C@@H](O)[C@H](O)[C@@H]2O)[C@@H](O)[C@H](O[C@H]2O[C@H](CO)[C@@H](O)[C@H](O)[C@@H]2O)[C@@H]1O [allyl Man(1,3)[Man(1,6)]Man, allyl 3,6-di-O-(α-D-mannosyl)-α-D-mannoside] |  |  | 20^a |
| C=CCO[C@H]1O[C@H](CO[C@H]2O[C@H](CO)[C@@H](O)[C@H](O)[C@@H]2O)[C@@H](O)[C@H](O)[C@@H]1O [allyl Man(1,6)Man, allyl 6-O-α-D-mannosyl-α-D-mannoside] |  |  | 0.5^a |
